# Reference: paper PMC9569420 (Communications Biology, 2022)
# What was measured:
# CAMK2d = target: T1, CAMK2d (Homo sapiens, UniProt Q13557); assay: HotSpot kinase assay; format: biochemical; conditions: read-out: % Enzyme Activity (relative to DMSO controls)
# T1 construct: purchased Reaction Biology Corporation
# MYLK3 = target: T2, MYLK3 (Homo sapiens, UniProt Q32MK0); assay: HotSpot kinase assay; format: biochemical; conditions: read-out: % Enzyme Activity (relative to DMSO controls)
# T2 construct: purchased Reaction Biology Corporation
# MAPKAPK5/PRAK = target: T3, MAPKAPK5/PRAK (Homo sapiens, UniProt Q8IW41); assay: HotSpot kinase assay; format: biochemical; conditions: read-out: % Enzyme Activity (relative to DMSO controls)
# T3 construct: purchased Reaction Biology Corporation
# MKK6 = target: T4, MKK6 (Homo sapiens, UniProt P52564); assay: HotSpot kinase assay; format: biochemical; conditions: read-out: % Enzyme Activity (relative to DMSO controls)
# T4 construct: purchased Reaction Biology Corporation
# EPHA1 = target: T5, EPHA1 (Homo sapiens, UniProt P21709); assay: HotSpot kinase assay; format: biochemical; conditions: read-out: % Enzyme Activity (relative to DMSO controls)
# T5 construct: purchased Reaction Biology Corporation
# CDK1/cyclin A = target: T6, CDK1/cyclin A (Homo sapiens, UniProt P06493); assay: HotSpot kinase assay; format: biochemical; conditions: read-out: % Enzyme Activity (relative to DMSO controls)
# T6 construct: purchased Reaction Biology Corporation
# CDK7/cyclin H = target: T7, CDK7/cyclin H (Homo sapiens, UniProt P50613); assay: HotSpot kinase assay; format: biochemical; conditions: read-out: % Enzyme Activity (relative to DMSO controls)
# T7 construct: purchased Reaction Biology Corporation
# SARS-CoV-2 (WA1/2020) = assay: SARS-CoV-2 infection of Huh-7.5 cells (nucleocapsid staining); conditions: 24 and 72 h
# MARK2/PAR-1Ba = target: T8, MARK2/PAR-1Ba (Homo sapiens, UniProt Q7KZI7); assay: HotSpot kinase assay; format: biochemical; conditions: read-out: % Enzyme Activity (relative to DMSO controls)
# T8 construct: purchased Reaction Biology Corporation
# IRAK4 = target: T9, IRAK4 (Homo sapiens, UniProt Q9NWZ3); assay: HotSpot kinase assay; format: biochemical; conditions: read-out: % Enzyme Activity (relative to DMSO controls)
# T9 construct: purchased Reaction Biology Corporation
# PKCIOTA = target: T10, PKCIOTA (Homo sapiens, UniProt P41743); assay: HotSpot kinase assay; format: biochemical; conditions: read-out: % Enzyme Activity (relative to DMSO controls)
# T10 construct: purchased Reaction Biology Corporation
# in vitro [1] = conditions: human, Huh-7.5 cells infected with SARS-CoV-2
# MST1/STK4 = target: T11, MST1/STK4 (Homo sapiens, UniProt Q13043); assay: HotSpot kinase assay; format: biochemical; conditions: read-out: % Enzyme Activity (relative to DMSO controls)
# T11 construct: purchased Reaction Biology Corporation
# CDK3/cyclin E = target: T12, CDK3/cyclin E (Homo sapiens, UniProt Q00526); assay: HotSpot kinase assay; format: biochemical; conditions: read-out: % Enzyme Activity (relative to DMSO controls)
# T12 construct: purchased Reaction Biology Corporation
# MARK4 = target: T13, MARK4 (Homo sapiens, UniProt Q96L34); assay: HotSpot kinase assay; format: biochemical; conditions: read-out: % Enzyme Activity (relative to DMSO controls)
# T13 construct: purchased Reaction Biology Corporation
# MEK2 = target: T14, MEK2 (Homo sapiens, UniProt P36507); assay: HotSpot kinase assay; format: biochemical; conditions: read-out: % Enzyme Activity (relative to DMSO controls)
# T14 construct: purchased Reaction Biology Corporation
# CHK2 = target: T15, CHK2 (Homo sapiens, UniProt O96017); assay: HotSpot kinase assay; format: biochemical; conditions: read-out: % Enzyme Activity (relative to DMSO controls)
# T15 construct: purchased Reaction Biology Corporation
# PAK3 = target: T16, PAK3 (Homo sapiens, UniProt O75914); assay: HotSpot kinase assay; format: biochemical; conditions: read-out: % Enzyme Activity (relative to DMSO controls)
# T16 construct: purchased Reaction Biology Corporation
# CLK2 = target: T17, CLK2 (Homo sapiens, UniProt P49760); assay: HotSpot kinase assay; format: biochemical; conditions: read-out: % Enzyme Activity (relative to DMSO controls)
# T17 construct: purchased Reaction Biology Corporation
# EPHA6 = target: T18, EPHA6 (Homo sapiens, UniProt Q9UF33); assay: HotSpot kinase assay; format: biochemical; conditions: read-out: % Enzyme Activity (relative to DMSO controls)
# T18 construct: purchased Reaction Biology Corporation
# STK33 = target: T19, STK33 (Homo sapiens, UniProt Q9BYT3); assay: HotSpot kinase assay; format: biochemical; conditions: read-out: % Enzyme Activity (relative to DMSO controls)
# T19 construct: purchased Reaction Biology Corporation
# MELK = target: T20, MELK (Homo sapiens, UniProt Q14680); assay: HotSpot kinase assay; format: biochemical; conditions: read-out: % Enzyme Activity (relative to DMSO controls)
# T20 construct: purchased Reaction Biology Corporation
# GRK3 = target: T21, GRK3 (Homo sapiens, UniProt P35626); assay: HotSpot kinase assay; format: biochemical; conditions: read-out: % Enzyme Activity (relative to DMSO controls)
# T21 construct: purchased Reaction Biology Corporation
# in vitro [2] = conditions: dog, MDCK-MDR1
# SBK1 = target: T22, SBK1 (Homo sapiens, UniProt Q52WX2); assay: HotSpot kinase assay; format: biochemical; conditions: read-out: % Enzyme Activity (relative to DMSO controls)
# T22 construct: purchased Reaction Biology Corporation
# GRK4 = target: T23, GRK4 (Homo sapiens, UniProt P32298); assay: HotSpot kinase assay; format: biochemical; conditions: read-out: % Enzyme Activity (relative to DMSO controls)
# T23 construct: purchased Reaction Biology Corporation
# CDK18/cyclin Y (PCTK3) = target: T24, CDK18/cyclin Y (PCTK3) (Homo sapiens, UniProt Q07002); assay: HotSpot kinase assay; format: biochemical; conditions: read-out: % Enzyme Activity (relative to DMSO controls)
# T24 construct: purchased Reaction Biology Corporation
# Akt (pAkt T308) = format: cell-based, monkey; conditions: 10µM
# PKG1b = target: T25, PKG1b (Homo sapiens, UniProt Q13976); assay: HotSpot kinase assay; format: biochemical; conditions: read-out: % Enzyme Activity (relative to DMSO controls)
# T25 construct: purchased Reaction Biology Corporation
# ROS/ROS1 = target: T26, ROS/ROS1 (Homo sapiens, UniProt P08922); assay: HotSpot kinase assay; format: biochemical; conditions: read-out: % Enzyme Activity (relative to DMSO controls)
# T26 construct: purchased Reaction Biology Corporation
# LYN B = target: T27, LYN B (Homo sapiens, UniProt P07948); assay: HotSpot kinase assay; format: biochemical; conditions: read-out: % Enzyme Activity (relative to DMSO controls)
# T27 construct: purchased Reaction Biology Corporation
# DAPK1 = target: T28, DAPK1 (Homo sapiens, UniProt P53355); assay: HotSpot kinase assay; format: biochemical; conditions: read-out: % Enzyme Activity (relative to DMSO controls)
# T28 construct: purchased Reaction Biology Corporation
# PDGFRb = target: T29, PDGFRb (Homo sapiens, UniProt P09619); assay: HotSpot kinase assay; format: biochemical; conditions: read-out: % Enzyme Activity (relative to DMSO controls)
# T29 construct: purchased Reaction Biology Corporation
# PKCa = target: T30, PKCa (Homo sapiens, UniProt P17252); assay: HotSpot kinase assay; format: biochemical; conditions: read-out: % Enzyme Activity (relative to DMSO controls)
# T30 construct: purchased Reaction Biology Corporation
# ERBB4/HER4 = target: T31, ERBB4/HER4 (Homo sapiens, UniProt Q15303); assay: HotSpot kinase assay; format: biochemical; conditions: read-out: % Enzyme Activity (relative to DMSO controls)
# T31 construct: purchased Reaction Biology Corporation
# BRK = target: T32, BRK (Homo sapiens, UniProt Q13882); assay: HotSpot kinase assay; format: biochemical; conditions: read-out: % Enzyme Activity (relative to DMSO controls)
# T32 construct: purchased Reaction Biology Corporation
# NEK4 = target: T33, NEK4 (Homo sapiens, UniProt P51957); assay: HotSpot kinase assay; format: biochemical; conditions: read-out: % Enzyme Activity (relative to DMSO controls)
# T33 construct: purchased Reaction Biology Corporation
# CAMK1g = target: T34, CAMK1g (Homo sapiens, UniProt Q96NX5); assay: HotSpot kinase assay; format: biochemical; conditions: read-out: % Enzyme Activity (relative to DMSO controls)
# T34 construct: purchased Reaction Biology Corporation
# IRAK1 = target: T35, IRAK1 (Homo sapiens, UniProt P51617); assay: HotSpot kinase assay; format: biochemical; conditions: read-out: % Enzyme Activity (relative to DMSO controls)
# T35 construct: purchased Reaction Biology Corporation
# DNA-PK = target: T36, DNA-PK (Homo sapiens, UniProt P78527); assay: HotSpot kinase assay; format: biochemical; conditions: read-out: % Enzyme Activity (relative to DMSO controls)
# T36 construct: purchased Reaction Biology Corporation
# AXL = target: T37, AXL (Homo sapiens, UniProt P30530); assay: HotSpot kinase assay; format: biochemical; conditions: read-out: % Enzyme Activity (relative to DMSO controls)
# T37 construct: purchased Reaction Biology Corporation
# NIM1 = target: T38, NIM1 (Homo sapiens, UniProt Q8IY84); assay: HotSpot kinase assay; format: biochemical; conditions: read-out: % Enzyme Activity (relative to DMSO controls)
# T38 construct: purchased Reaction Biology Corporation
# T35 sequence (P51617 whole entry): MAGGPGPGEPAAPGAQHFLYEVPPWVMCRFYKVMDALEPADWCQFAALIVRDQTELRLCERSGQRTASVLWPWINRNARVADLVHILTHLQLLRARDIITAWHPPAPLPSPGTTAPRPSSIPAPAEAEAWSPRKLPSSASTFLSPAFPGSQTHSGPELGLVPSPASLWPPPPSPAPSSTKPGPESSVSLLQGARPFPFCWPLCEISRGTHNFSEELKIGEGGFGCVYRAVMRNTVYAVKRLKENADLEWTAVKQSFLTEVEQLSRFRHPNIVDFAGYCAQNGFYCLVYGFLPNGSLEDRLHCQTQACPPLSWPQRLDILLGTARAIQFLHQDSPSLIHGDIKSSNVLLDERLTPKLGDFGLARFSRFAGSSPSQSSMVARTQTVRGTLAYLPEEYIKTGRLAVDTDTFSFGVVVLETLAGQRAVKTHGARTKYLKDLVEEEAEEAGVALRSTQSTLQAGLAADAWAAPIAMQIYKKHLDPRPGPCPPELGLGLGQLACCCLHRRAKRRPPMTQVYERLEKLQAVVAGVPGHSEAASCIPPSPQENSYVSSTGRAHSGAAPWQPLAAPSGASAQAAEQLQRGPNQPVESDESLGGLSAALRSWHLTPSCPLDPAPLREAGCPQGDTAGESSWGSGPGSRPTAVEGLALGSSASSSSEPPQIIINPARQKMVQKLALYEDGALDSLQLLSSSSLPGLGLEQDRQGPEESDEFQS
# T33 sequence (P51957 whole entry): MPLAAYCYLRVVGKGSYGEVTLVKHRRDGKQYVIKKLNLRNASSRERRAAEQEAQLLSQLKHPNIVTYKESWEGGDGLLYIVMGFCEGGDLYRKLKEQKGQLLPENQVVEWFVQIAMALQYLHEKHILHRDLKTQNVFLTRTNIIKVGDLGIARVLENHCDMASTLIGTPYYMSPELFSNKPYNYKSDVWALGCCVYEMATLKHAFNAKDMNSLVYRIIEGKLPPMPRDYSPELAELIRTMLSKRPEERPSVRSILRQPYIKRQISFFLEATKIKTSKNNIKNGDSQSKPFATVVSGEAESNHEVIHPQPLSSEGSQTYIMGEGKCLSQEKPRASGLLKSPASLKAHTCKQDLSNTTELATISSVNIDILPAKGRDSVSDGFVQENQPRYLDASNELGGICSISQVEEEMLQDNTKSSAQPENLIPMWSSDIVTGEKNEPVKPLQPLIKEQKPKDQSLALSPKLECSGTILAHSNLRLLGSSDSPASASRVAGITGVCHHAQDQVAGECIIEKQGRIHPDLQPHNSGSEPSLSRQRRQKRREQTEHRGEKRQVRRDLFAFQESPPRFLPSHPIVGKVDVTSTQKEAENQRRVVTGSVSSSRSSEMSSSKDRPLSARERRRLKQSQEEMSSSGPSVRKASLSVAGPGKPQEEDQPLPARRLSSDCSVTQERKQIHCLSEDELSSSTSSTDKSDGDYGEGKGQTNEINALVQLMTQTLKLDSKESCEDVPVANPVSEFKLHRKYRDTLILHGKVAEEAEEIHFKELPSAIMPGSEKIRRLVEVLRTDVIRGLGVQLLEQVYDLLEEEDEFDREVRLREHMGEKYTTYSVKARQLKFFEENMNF
# T24 sequence (Q07002 whole entry): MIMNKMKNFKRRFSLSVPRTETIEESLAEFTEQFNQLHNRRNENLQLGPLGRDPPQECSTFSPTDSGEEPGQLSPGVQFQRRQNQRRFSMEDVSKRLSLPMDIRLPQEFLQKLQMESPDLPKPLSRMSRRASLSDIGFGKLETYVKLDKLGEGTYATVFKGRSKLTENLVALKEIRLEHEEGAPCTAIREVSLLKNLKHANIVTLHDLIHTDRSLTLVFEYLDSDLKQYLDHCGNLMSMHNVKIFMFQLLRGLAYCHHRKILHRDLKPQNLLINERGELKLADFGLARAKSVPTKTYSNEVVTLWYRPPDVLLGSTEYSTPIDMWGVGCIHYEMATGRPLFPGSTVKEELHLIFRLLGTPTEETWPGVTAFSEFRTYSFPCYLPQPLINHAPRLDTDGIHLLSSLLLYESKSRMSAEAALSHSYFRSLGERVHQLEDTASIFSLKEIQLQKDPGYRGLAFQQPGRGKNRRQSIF
# T24 sequence (Q8ND76 whole entry partner): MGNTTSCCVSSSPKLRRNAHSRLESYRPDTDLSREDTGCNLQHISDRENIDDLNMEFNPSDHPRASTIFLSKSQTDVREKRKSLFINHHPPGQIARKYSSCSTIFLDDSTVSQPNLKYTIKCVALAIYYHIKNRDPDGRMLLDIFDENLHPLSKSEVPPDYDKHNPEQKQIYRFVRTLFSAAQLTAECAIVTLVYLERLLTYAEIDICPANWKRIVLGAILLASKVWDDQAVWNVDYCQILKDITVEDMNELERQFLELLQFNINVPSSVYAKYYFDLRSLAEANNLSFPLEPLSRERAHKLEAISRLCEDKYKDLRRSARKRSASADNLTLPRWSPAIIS
# T28 sequence (P53355 whole entry): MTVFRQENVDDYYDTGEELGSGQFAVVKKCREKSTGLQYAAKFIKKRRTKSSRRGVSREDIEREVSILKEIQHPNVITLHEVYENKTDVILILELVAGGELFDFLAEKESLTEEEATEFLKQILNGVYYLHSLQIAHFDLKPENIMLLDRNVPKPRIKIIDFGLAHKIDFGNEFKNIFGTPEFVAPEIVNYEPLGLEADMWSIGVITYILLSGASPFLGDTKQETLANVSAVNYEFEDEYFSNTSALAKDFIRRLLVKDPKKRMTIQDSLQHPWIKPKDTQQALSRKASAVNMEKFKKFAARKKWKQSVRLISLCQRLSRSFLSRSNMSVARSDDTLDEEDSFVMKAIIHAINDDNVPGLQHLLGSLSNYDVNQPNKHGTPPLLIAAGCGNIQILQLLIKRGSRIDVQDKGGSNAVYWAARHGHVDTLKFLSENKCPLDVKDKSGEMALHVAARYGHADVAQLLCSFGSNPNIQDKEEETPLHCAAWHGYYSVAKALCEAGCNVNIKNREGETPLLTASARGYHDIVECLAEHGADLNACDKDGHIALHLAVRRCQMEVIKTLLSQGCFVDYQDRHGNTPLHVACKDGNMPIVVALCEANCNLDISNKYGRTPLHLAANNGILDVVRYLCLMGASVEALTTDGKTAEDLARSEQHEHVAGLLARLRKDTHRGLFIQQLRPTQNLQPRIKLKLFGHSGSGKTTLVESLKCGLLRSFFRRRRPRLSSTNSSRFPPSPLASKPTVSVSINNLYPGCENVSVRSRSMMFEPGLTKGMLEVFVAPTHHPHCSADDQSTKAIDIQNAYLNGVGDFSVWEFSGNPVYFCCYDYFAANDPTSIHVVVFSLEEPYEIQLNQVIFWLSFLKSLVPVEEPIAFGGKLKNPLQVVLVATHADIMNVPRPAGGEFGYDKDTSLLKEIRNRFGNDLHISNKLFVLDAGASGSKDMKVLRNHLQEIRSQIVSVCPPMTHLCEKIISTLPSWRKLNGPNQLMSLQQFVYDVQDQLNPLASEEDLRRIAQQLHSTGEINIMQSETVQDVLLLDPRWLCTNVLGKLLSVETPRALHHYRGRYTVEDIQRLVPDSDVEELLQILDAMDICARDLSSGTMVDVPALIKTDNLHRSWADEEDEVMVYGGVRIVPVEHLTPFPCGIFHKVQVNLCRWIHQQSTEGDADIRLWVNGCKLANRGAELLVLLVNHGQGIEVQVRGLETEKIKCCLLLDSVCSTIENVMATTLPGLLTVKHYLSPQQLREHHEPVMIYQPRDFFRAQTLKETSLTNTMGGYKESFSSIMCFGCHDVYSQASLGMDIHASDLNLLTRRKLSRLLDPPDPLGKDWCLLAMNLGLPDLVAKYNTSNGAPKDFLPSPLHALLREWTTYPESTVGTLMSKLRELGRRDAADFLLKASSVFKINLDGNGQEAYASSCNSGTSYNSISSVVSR
# T37 sequence (P30530 26-894): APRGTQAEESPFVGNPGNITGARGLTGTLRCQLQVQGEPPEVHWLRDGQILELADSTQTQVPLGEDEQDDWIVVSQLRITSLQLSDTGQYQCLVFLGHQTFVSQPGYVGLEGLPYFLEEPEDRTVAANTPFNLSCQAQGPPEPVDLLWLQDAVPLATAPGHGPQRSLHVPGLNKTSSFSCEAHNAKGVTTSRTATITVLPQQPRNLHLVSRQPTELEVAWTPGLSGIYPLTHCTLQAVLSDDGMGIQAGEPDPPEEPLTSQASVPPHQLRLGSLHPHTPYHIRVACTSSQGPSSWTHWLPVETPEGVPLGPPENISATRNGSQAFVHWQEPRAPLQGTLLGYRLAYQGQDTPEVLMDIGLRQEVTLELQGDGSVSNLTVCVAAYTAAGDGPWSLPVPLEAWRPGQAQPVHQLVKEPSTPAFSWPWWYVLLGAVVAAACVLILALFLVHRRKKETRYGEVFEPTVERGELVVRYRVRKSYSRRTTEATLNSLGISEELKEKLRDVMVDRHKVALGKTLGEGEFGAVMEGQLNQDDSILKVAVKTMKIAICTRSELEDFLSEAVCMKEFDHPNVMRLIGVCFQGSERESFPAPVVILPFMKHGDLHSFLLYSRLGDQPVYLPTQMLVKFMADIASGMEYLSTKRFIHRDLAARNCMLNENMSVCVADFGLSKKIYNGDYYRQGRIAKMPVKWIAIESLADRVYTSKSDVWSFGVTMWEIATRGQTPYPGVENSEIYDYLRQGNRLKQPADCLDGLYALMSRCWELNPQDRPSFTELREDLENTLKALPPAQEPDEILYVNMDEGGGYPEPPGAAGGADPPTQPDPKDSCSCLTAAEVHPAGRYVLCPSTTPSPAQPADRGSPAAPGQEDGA
# T14 sequence (P36507 whole entry): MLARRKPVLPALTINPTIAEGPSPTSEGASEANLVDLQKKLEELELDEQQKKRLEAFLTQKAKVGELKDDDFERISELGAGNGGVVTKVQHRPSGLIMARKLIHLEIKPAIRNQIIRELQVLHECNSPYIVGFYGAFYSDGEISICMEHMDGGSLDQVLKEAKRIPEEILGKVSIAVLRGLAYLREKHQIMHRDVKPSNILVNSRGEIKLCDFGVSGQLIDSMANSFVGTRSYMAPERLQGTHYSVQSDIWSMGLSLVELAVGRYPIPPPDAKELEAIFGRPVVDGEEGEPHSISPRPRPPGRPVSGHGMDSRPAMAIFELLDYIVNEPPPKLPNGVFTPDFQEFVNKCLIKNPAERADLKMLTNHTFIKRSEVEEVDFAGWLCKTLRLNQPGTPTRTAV
smiles,measurement,setting,value
CO[C@@H]1[C@H](N(C)C(=O)CCC(=O)NCc2cn(CCCS(=O)(=O)O)nn2)C[C@H]2O[C@]1(C)n1c3ccccc3c3c4c(c5c6ccccc6n2c5c31)C(=O)NC4 [CIMSS],remaining activity at 10 µM,CAMK2d,1.33%
same,remaining activity at 10 µM,MYLK3,67.6%
same,remaining activity at 10 µM,MAPKAPK5/PRAK,85.2%
same,remaining activity at 10 µM,MKK6,59.7%
same,remaining activity at 10 µM,EPHA1,31.5%
same,remaining activity at 10 µM,CDK1/cyclin A,21.3%
same,remaining activity at 10 µM,CDK7/cyclin H,65.6%
same,authentic SARS-CoV-2 (WA1/2020) infection,SARS-CoV-2 (WA1/2020),inhibitory activity
same,remaining activity at 10 µM,MARK2/PAR-1Ba,2.38%
same,remaining activity at 10 µM,IRAK4,6.48%
same,remaining activity at 10 µM,PKCIOTA,31.5%
same,"viability at 24 h, 0.78125 µM",in vitro [1],84.7%
same,"viability at 24 h, 1.5625 µM",in vitro [1],85.5%
same,"viability at 24 h, 3.125 µM",in vitro [1],87.6%
same,"viability at 24 h, 25 µM",in vitro [1],87.9%
same,"viability at 24 h, 50 µM",in vitro [1],97.2%
same,"viability at 72 h, 0.78125 µM",in vitro [1],94.8%
same,"viability at 72 h, 25 µM",in vitro [1],80.4%
same,"viability at 72 h, 50 µM",in vitro [1],70.1%
same,remaining activity at 10 µM,MST1/STK4,4.33%
same,remaining activity at 10 µM,CDK3/cyclin E,13.9%
same,remaining activity at 10 µM,MARK4,0.77%
same,remaining activity at 10 µM,MEK2,68%
same,remaining activity at 10 µM,CHK2,25.4%
same,remaining activity at 10 µM,PAK3,6.48%
same,remaining activity at 10 µM,CLK2,4.13%
same,remaining activity at 10 µM,EPHA6,34.6%
same,remaining activity at 10 µM,STK33,9.17%
same,remaining activity at 10 µM,MELK,1.43%
same,remaining activity at 10 µM,GRK3,46.9%
same,"Papp at 1 h, 5 μM",in vitro [2],0.1 ×10⁻⁶ cm/s
same,remaining activity at 10 µM,SBK1,78.8%
same,remaining activity at 10 µM,GRK4,19.8%
same,remaining activity at 10 µM,CDK18/cyclin Y (PCTK3),41.3%
same,extracellular phosphorylation of Akt,Akt (pAkt T308),inhibited
same,remaining activity at 10 µM,PKG1b,13.9%
same,remaining activity at 10 µM,ROS/ROS1,4.57%
same,remaining activity at 10 µM,LYN B,2.95%
same,remaining activity at 10 µM,DAPK1,13.6%
same,remaining activity at 10 µM,PDGFRb,1.9%
same,remaining activity at 10 µM,PKCa,0.86%
same,remaining activity at 10 µM,ERBB4/HER4,25%
same,remaining activity at 10 µM,BRK,25.5%
same,remaining activity at 10 µM,NEK4,6.24%
same,remaining activity at 10 µM,CAMK1g,8.97%
same,remaining activity at 10 µM,IRAK1,3.57%
same,remaining activity at 10 µM,DNA-PK,98.2%
same,remaining activity at 10 µM,AXL,3.61%
same,remaining activity at 10 µM,NIM1,46.6%
